{"source": "patent US12195447B2", "about": "“Azolopyrimidine for the treatment of cancer-related disorders” (ARCUS BIOSCIENCES, INC., priority 2017, dated 2025)", "key": {"[1]": {"biological_target": "T1, adenosine A2A receptor (A2AR) (Homo sapiens, UniProt P29274)", "T1 construct": "expressed in transfected cells", "T1 sequence (P29274 whole entry)": "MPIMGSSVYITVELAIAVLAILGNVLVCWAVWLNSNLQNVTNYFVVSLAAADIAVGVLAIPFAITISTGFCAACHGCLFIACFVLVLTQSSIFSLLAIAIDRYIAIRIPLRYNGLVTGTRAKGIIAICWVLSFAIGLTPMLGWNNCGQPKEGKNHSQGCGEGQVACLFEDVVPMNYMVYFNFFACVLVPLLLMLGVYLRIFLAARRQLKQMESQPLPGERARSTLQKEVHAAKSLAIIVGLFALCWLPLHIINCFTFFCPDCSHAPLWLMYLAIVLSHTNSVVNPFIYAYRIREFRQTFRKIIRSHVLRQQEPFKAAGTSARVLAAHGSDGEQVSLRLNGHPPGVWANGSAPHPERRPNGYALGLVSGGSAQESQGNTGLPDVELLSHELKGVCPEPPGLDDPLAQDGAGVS", "assay": "A2AR/TREx CHO cAMP functional assay (antagonist mode, NECA EC80)", "format": "cell-based", "protocol": "Functional assays may also be employed to assess the compounds of the present invention. The cAMP assay described in detail below was used to evaluate certain compounds described herein.\nMeasurement of the Adenosine Receptor Activity of Compound I Using a A2AR/TREx CHO cAMP Functional Assay\nDose response of NECA (5-N-ethylcarboxamidoadenosine), a non-selective adenosine receptor agonist, was performed daily to determine the EC80 of NECA used in the cAMP functional assay. 1000-2500 cells/well of stably expressed A2AR TRex CHO cells were seeded to the 384-well Opti plate (Perkin Elmer) followed by incubating NECA at varies concentrations (ranging from 10 μM to 0 μM) at 37° C. for 30 min. […] FRET signal was detected with Envision multilabel plate reader (Perkin Elmer) when Eu-cAMP tracer excitation at 615 nm and emission at 665 nm. […]\nThe cAMP antagonist functional assay (Perkin Elmer) was performed on A2AR TRex CHO stable cell lines. […] FRET signal was detected when Eu-cAMP tracer excitation at 615 nm and emission at 665 nm. […]\nParticular compounds were evaluated for adenosine A2A receptor activity as described for the cAMP assay above. […]"}, "A2BR": {"biological_target": "T2, A2BR (Homo sapiens, UniProt P29275)", "T2 sequence (P29275 1-332)": "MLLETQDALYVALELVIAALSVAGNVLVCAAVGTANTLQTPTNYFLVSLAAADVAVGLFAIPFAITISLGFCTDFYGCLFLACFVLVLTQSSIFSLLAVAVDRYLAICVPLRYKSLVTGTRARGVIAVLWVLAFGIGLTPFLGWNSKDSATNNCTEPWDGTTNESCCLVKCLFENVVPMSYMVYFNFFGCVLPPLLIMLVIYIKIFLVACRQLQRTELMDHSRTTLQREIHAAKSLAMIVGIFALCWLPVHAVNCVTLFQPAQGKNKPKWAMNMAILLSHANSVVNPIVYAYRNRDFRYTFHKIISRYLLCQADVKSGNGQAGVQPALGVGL", "assay": "Potency on A2BR (no method described)", "details": "summary statement"}}, "data": [{"smiles": "Cc1c(C#N)cccc1-c1cc(-c2cn(Cc3cccc(C(C)(C)O)n3)nn2)nc(N)n1", "note": "[Compound I, 3-[2-amino-6-(1-{[6-(2-hydroxypropan-2-yl)pyridin-2-yl]methyl}-1H-1,2,3-triazol-4-yl)pyrimidin-4-yl]-2-methylbenzonitrile]", "values": [{"measurement": "Kb", "setting": "[1]", "result": "< 10", "unit": "nM"}, {"measurement": "potency on A2AR (antagonist)", "setting": "[1]; summary statement", "result": "less than 10 nM"}, {"measurement": "potency on A2BR (antagonist)", "setting": "A2BR", "result": "less than 10 nM"}]}]}
